We go through 1 compound from patent US20110129883A1, “INACTIVATION OF GENES OF THE MEP PATHWAY” (BIOAGENCY AG, priority 2001, published 2011).

Molecules are shown by their SMILES.

The assay deals with E. coli transformed with the synthetic operon. The assay is classed as cell-based.

As to `O=CN(O)CCCP(=O)(O)O` [fosmidomycin], the “bacterial growth under fosmidomycin” value was “at a reduced rate and died”.
